Measured values published in patent US7528225B2, “Peptide epitopes of apolipoprotein B” (Forskarpapatent I Syd, priority 2001, dated 2009).
“Also recorded” adds a separate entry of the source.

How the values were obtained:
[1] = tested on: atherosclerosis in apo E knockout mice; experiment: Peptide immunization of Apo E (−/−) mice on high cholesterol diet: atherosclerotic plaque size and composition; conditions: for Atherosclerotic plaque in the descending aorta, en face oil red O, in comparison to control (in words): Apo E (−/−) mice vs Alum control; for Total plaque size in aortic sinus: Apo E (−/−) mice, sacrifice at 25 weeks; for Total plaque size in aortic sinus / mean collagen content in the aortic sinus plaques / % of plaque in aorta (flat prep.) / Oil red O (+) area (% of aortic sinus plaque) / Aortic arch plaque size: mean ± Std; for mean collagen content in the aortic sinus plaques: Trichrome staining; for % of plaque in aorta (flat prep.): descending thoracic and abdominal aorta, en face, oil red O; for Effect on atherosclerosis in the aorta: immunization of apo E knockout mice with single peptide sequence or mixture (Table B); for Oil red O (+) area (% of aortic sinus plaque): lipid content of aortic sinus plaque
Procedure: Apo E (−/−) mice received subcutaneous primary immunization at 6-7 weeks of age, followed by an intra-peritoneal booster 3 weeks later. Mice were fed high cholesterol diet from the onset of immunization and continued until sacrifice at the age of 25 weeks.
Alum was used as immunoadjuvant and mixed with peptide conjugate with 1:1 dilution in volume. The amount of peptide in each immunization was 33 μg/100 μl per injection.
Apo E (−/−) mice from the Jackson Laboratories (Bar Harbor, Me.) received subcutaneous primary immunization at 6-7 weeks of age, followed by an intra-peritoneal booster 3 weeks later. Mice were fed high cholesterol diet from the onset of immunization and continued until sacrifice at the age of 25 weeks. Blood samples were collected 2 weeks after booster and at the time of sacrifice. Mice receiving Alum served as control. […] At the time of sacrifice, mice were anesthetized by inhalation Enflurane. Plasma was obtained by retro-orbital bleeding prior to sacrifice.
To evaluate the effect of peptide immunization on atherosclerosis formation, the plaque size at aortic sinus was assessed, aortic arch and descending thoracic and abdominal aorta. After the heart and aortic tree were perfused with normal saline at physiological pressure, the heart and proximal aorta were excised and embedded in OCT compound (Tissue-Tek) and frozen sectioned. Serial 6-μm-thick sections were collected from the appearance of at least 2 aortic valves to the disappearance of the aortic valve leaflets for aortic sinus plaque evaluation. Typically 3 consecutive sections were on one slide and a total of 25-30 slides were collected from one mouse and every fifth slide was grouped for staining. Ascending aorta and aortic arches upto left subclavian artery were also sectioned and processed similarly. Descending thoracic and abdominal aorta were processed separately for en face evaluation of plaque formation after oil red O staining.
Chicken egg albumin (Sigma) in a concentration of 0.8 g/ml water was mixed 1:1 with glycerol. Sodium azide was added to make a final concentration of sodium azide 0.2%. After descending thoracic and abdominal aorta was cleaned off surrounding tissue and fat, the segment of aorta from left subclavian artery to the level of renal artery was then carefully removed for overnight fixation in Histochoice (Amresco). Aorta was then carefully opened longitudinally and placed with luminal side up on a slide freshly coated with egg albumin solution. After albumin solution became dry, the aorta was stained with Oil red O to assess the extent of atherosclerosis with computer-assisted histomorphometry.

Apo E (−/−) mice = experiment: Antibody titer against immunized peptide after immunization (mouse serum ELISA); type: in vivo; conditions: mouse serum 1/50; immunized group; mean ± Std
Procedure: Antibody titer measurement. To measure the antibody response after peptide immunization, an ELISA was developed. Antibody titer against immunized peptide was measured using blood collected at 2 weeks after booster and at sacrifice. Antibody response against 3 peptides was also determined in Alum group at the same time-points. In brief, native synthetic peptides diluted in PBS pH 7.4 (20 μg/ml) were absorbed to microtiter plate wells (Nunc MaxiSorp, Nunc, Roskilde, Denmark) in an overnight incubation at 4° C. […] After rinsing, deposition of antibodies directed to the peptides was detected by using biotinylated rabbit anti-mouse Ig antibodies (Dako A/S, Glostrup, Denmark) appropriately diluted in TBS-T. After another incubation for 2 h at room temperature the plates were washed and the bound biotinylated antibodies were detected by alkaline phosphatase conjugated streptavidin (Sigma), incubated for 2 h at room temperature. Using phosphatase substrate kit (Pierce) developed the colour reaction and the absorbance at 405 nm was measured after 1 h of incubation at room temperature. Mean values were calculated after the background was subtracted.

Sequence: EEEMLENVSLVCPKDATRFK [Peptide 1]
- Atherosclerotic plaque in the descending aorta, en face oil red O, in comparison to control (in words) ([1]; listed as Peptide No 1): did not produce a significant reduction in atherosclerosis
- Total plaque size in aortic sinus [1]: 0.48 ± 0.14 mm^2
- mean collagen content in the aortic sinus plaques [1]: 35.6±8.5%
- % of plaque in aorta (flat prep.) [1]: 17 ± 4.3%
- Effect on atherosclerosis in the aorta [1]: −15.4%
- Oil red O (+) area (% of aortic sinus plaque) [1]: 32.0 ± 8.1%
- Aortic arch plaque size [1]: 0.054 ± 0.027 mm^2
- Effect of immunisation on the development of atherosclerosis (in words) ([1]; summary statement): lacks total effect
- Increase of antibody titer against immunized peptide after immunization (Apo E (−/−) mice): 6.1±3.1 fold

Sequence: KTTKQSFDLSVKAQYKKNKH [Peptide 210]
- Effect on atherosclerosis in the aorta [1]: −57.9%

Sequence: ATRFKHLRKYTYNYQAQSSS [Peptide 2]
- Atherosclerotic plaque in the descending aorta, en face oil red O, in comparison to control (in words) ([1]; listed as peptide No. 2): substantially reduced atherosclerosis; also recorded: significantly reduced atherosclerotic burden
- mean collagen content in the aortic sinus plaques [1]: 40.0±7.7%
- Effect on atherosclerosis in the aorta [1]: −67.7%
- macrophage infiltration in the aortic sinus plaques (MOMA-2) ([1]; immunohistochemistry): significantly reduced macrophage infiltration
- Increase of antibody titer against immunized peptide after immunization (Apo E (−/−) mice): 2.4±1.0 fold

Sequence: FPDLGQEVALNANTKNQKIR [Peptide 240]
- Effect on atherosclerosis in the aorta [1]: 0%

Sequence: VISIPRLQAEARSEILAHWS [Peptide 74]
- Effect on atherosclerosis in the aorta [1]: −31.0%

Sequence: IEIGLEGKGFEPTLEALFGK [Peptide 45]
- Effect on atherosclerosis in the aorta [1]: −47.4%

Sequence: HTFLIYITELLKKLQSTTVM [Peptide 301]
- Atherosclerotic plaque in the descending aorta, en face oil red O, in comparison to control (in words) [1]: substantially reduced atherosclerosis
- Total plaque size in aortic sinus [1]: 0.46 ± 0.16 mm^2
- % of plaque in aorta (flat prep.) [1]: 8.9 ± 2.2 %
- Effect on atherosclerosis in the aorta [1]: −55.2%
- Oil red O (+) area (% of aortic sinus plaque) [1]: 23.8 ± 4.1%
- Aortic arch plaque size [1]: 0.050 ± 0.024 mm^2
